Here are results for three compounds from patent US12454531B2, “Substituted piperazine derivatives useful as T cell activators” (BRISTOL-MYERS SQUIBB COMPANY, priority 2019, dated 2025).

Usually IC50 stands for the concentration that gives 50% inhibition. A lower IC50 goes with inhibition by little substance.

DGKζ, sequence (Q13574 other isoform, or with tags, fused parts or gaps): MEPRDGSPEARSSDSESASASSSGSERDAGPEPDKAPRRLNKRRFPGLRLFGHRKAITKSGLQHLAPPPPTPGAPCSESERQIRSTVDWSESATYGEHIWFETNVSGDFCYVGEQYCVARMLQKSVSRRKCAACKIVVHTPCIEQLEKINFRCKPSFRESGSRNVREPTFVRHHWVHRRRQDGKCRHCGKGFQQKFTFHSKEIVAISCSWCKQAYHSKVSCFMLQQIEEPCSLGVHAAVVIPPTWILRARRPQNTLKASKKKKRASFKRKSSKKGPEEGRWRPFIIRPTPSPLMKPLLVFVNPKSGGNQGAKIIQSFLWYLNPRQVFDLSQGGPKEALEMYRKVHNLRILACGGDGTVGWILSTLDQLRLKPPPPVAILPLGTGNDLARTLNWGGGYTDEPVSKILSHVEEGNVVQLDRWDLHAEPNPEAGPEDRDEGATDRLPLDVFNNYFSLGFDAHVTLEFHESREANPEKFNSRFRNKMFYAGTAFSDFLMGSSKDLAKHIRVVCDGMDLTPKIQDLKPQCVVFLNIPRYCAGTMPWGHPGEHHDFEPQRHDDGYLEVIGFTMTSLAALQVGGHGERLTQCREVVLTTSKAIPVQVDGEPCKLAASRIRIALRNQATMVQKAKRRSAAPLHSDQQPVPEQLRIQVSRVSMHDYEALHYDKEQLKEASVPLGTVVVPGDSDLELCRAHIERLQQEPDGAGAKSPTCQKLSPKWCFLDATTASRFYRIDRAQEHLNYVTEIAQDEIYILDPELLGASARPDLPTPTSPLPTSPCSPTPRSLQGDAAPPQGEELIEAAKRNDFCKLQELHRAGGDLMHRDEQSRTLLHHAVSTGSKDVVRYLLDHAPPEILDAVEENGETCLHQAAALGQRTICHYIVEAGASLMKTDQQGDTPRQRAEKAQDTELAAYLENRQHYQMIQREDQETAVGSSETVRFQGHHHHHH

This test deals with DGKζ (Homo sapiens (Human), UniProt Q13574). Nature of the test: Assay 1 or 2: In Vitro DGK Inhibition Assays (DGKζ LIPGLO, extruded liposome). The conditions noted are these: extruded liposome substrate, 150 μM ATP. It counts as biochemical. On the procedure:
Assay 1: In Vitro DGK Inhibition Assays—Method A
The DGKα and DGKζ reactions were performed using either extruded liposome (DGKα and DGKζ LIPGLO assays) or detergent/lipid micelle substrate (DGKα and DGKζ assays). The reactions were carried out in 50 mM MOPS pH 7.5, 100 mM NaCl, 10 mM MgCl2, 1 μM CaCl2), and 1 mM DTT (assay buffer). The reactions using a detergent/lipid micelle substrate also contained 50 mM octyl B-D-glucopyranoside. The lipid substrate concentrations were 11 mM PS and 1 mM DAG for the detergent/lipid micelle reactions. The lipid substrate concentrations were 2 mM PS, 0.25 mM DAG, and 2.75 mM PC for the extruded liposome reactions. The reactions were carried out in 150 μM ATP. The enzyme concentrations for the DGKα and DGKζ were 5 nM
The compound inhibition studies were carried out as follows: 50 nL droplets of each test compound (top concentration 10 mM with 11 point, 3-fold dilution series for each compound) solubilized in DMSO were transferred to wells of a white 1536 well plate (Corning 3725). A 5 mL enzyme/substrate solution at 2× final reaction concentration was prepared by combining 2.5 mL 4× enzyme solution (20 nM DGKα or DGKζ (prepared as described below) in assay buffer) and 2.5 mL of either 4× liposome or 4× detergent/lipid micelle solution (compositions described below) and incubated at room temperature for 10 minutes. Next, 1 μL 2× enzyme/substrate solution was added to wells containing the test compound and reactions were initiated with the addition of 1 μL 300 uM ATP. The reactions were allowed to proceed for 1 hr, after which 2 μL Glo Reagent (Promega V9101) was added and incubated for 40 minutes. Next, 4 μL Kinase Detection Reagent was added and incubated for 30 minutes. Luminescence was recorded using an EnVision microplate reader. […] The compounds were evaluated at 11 concentrations to determine IC50.
The lipid composition was 5 mol % DAG (Avanti 8008110), 40 mol % PS (Avanti 840035P), and 55 mol % PC (Avanti 850457) at a total lipid concentration of 15.2 mg/mL for the 4× liposome solution. The PC, DAG, and PS were dissolved in chloroform, combined, and dried in vacuo to a thin film. The lipids were hydrated to 20 mM in 50 mM MOPS pH 7.5, 100 mM NaCl, 5 mM MgCl2, and were freeze-thawed five times. The lipid suspension was extruded through a 100 nm polycarbonate filter eleven times. […] The liposome preparation was stored at 4° C. for as long as four weeks.
Baculovirus amplification was achieved using infected Sf9 cells at 1:1500 virus/cell ratios, and grown for 65 hours at 27° C. post-transfection.
The cells were lysed using nitrogen cavitation method with a nitrogen bomb (Parr Instruments), and the lysates were clarified by centrifugation. […] The three steps column chromatography included nickel affinity resin capture (i.e. HisTrap FF crude, GE Healthcare), followed by size exclusion chromatography (i.e. HiLoad 26/600 Superdex 200 prep grade, GE Healthcare for DGK-alpha, and HiPrep 26/600 Sephacryl S 300_HR, GE Healthcare for DGK-zeta). The third step was ion exchange chromatography, and differed for the two isoforms. DGKα was polished using Q-Sepharose anion exchange chromatography (GE Healthcare). DGKζ was polished using SP Sepharose cation exchange chromatography (GE Healthcare). The proteins were delivered at concentrations of ≥2 mg/mL. The formulation buffers were identical for both proteins: 50 mM Hepes, pH 7.2, 500 mM NaCl, 10% v/v glycerol, 1 mM TCEP, and 0.5 mM EDTA.
Assay 2: In Vitro DGK Inhibition Assays—Method B
The DGKα and DGKζ reactions were performed using either extruded liposome (DGKα and DGKζ LIPGLO assays) or detergent/lipid micelle substrate (DGKα and DGKζ assays).
Take `CC[C@H]1CN(C(C(=O)N2CCOCC2)c2ccc(C(F)(F)F)cc2)[C@H](CC)CN1c1nc(=O)n(C)c2ccc(C#N)nc12` (single isomer, unassigned) [Example 53]: the 50% inhibitory concentration (IC50) is 3290 nM.
The value for `CC[C@H]1CN(C(C(=O)N2CCOCC2)c2ccc(C(F)(F)F)cc2)[C@H](CC)CN1c1nc(=O)n(C)c2ccc(C#N)nc12` (single isomer, unassigned) [Example 54] was 580 nM; that for `CC[C@H]1CN(C(C(=O)NCCOC)c2ccc(C(F)(F)F)cc2)[C@H](CC)CN1c1nc(=O)n(C)c2ccc(C#N)nc12` (single isomer, unassigned) [Example 56] was 100 nM.
